Measured values: ChEMBL document CHEMBL1909046, “DrugMatrix in vitro pharmacology data”

Assays:
[1] = molecular target: Receptor tyrosine-protein kinase erbB-2 (Homo sapiens, UniProt P04626); assay: biochemical; assay type: cell-based, Insect cells;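 further: inhibition of HER2 kinase enzyme activity, measured with Poly(Glu:Tyr) as the phosphorylation substrate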
[2] = molecular target: T1, Alpha-2A adrenergic receptor (Homo sapiens, UniProt P08913); assay type: cell membranes, Sf9, Membrane; settings: sf9
T1 sequence (P08913 whole entry): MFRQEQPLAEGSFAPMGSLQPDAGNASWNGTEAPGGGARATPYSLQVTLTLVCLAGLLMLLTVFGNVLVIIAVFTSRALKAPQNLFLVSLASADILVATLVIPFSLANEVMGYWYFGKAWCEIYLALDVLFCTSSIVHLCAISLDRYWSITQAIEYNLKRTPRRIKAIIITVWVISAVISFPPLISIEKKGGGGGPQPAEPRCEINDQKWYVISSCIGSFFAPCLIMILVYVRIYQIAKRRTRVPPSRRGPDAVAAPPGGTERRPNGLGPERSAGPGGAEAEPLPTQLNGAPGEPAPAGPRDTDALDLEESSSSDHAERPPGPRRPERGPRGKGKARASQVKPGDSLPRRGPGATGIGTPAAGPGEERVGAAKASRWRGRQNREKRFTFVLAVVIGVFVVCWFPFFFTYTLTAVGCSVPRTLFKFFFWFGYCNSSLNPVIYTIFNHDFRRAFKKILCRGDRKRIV

Glucocorticoid receptor = molecular target: T2, Glucocorticoid receptor (Homo sapiens, UniProt P04150); assay: biochemical
T2 sequence (P04150 whole entry): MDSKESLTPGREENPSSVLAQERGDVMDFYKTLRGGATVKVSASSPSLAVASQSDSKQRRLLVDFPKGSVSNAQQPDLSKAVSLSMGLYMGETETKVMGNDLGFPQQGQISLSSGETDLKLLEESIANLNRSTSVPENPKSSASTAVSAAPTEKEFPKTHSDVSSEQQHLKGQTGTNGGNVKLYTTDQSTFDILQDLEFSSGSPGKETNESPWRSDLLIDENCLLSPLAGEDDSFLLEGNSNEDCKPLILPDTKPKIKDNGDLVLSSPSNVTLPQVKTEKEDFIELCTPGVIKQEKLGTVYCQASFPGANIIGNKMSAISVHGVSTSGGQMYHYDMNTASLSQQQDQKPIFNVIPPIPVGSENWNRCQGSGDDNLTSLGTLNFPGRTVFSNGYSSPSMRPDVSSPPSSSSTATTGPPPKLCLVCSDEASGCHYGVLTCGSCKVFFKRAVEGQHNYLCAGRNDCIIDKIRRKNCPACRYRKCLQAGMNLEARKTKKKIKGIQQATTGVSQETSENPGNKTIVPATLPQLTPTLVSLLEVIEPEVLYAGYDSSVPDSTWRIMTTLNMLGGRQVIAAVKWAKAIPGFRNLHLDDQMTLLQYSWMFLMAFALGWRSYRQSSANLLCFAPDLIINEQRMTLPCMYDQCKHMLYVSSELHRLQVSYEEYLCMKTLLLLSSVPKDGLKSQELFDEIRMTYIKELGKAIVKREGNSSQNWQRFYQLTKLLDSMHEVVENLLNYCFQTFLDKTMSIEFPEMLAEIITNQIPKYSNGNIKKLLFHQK

Cytochrome P450 2D6 = Cytochrome P450 2D6 (Homo sapiens, UniProt P10635); settings: bti-tn-5b1-4
Cytochrome P450 2D6, sequence (P10635 whole entry): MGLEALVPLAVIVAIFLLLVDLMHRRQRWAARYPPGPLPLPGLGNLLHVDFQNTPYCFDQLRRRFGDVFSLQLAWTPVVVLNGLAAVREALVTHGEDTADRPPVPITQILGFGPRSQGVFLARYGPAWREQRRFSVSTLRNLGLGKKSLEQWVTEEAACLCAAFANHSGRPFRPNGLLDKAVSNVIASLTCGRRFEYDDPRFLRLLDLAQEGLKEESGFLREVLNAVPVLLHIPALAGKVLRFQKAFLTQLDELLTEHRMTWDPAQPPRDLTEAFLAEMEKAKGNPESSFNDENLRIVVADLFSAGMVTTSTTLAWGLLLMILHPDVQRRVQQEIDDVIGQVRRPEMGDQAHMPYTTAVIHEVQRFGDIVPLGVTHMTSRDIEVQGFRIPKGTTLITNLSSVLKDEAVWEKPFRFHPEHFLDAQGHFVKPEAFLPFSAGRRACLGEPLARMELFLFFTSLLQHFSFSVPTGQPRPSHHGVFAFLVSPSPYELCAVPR

[3] = molecular target: T3, Alpha-1D adrenergic receptor (Homo sapiens, UniProt P25100); assay type: cell membranes, HEK293, Membrane; settings: hek293
T3 sequence (P25100 whole entry): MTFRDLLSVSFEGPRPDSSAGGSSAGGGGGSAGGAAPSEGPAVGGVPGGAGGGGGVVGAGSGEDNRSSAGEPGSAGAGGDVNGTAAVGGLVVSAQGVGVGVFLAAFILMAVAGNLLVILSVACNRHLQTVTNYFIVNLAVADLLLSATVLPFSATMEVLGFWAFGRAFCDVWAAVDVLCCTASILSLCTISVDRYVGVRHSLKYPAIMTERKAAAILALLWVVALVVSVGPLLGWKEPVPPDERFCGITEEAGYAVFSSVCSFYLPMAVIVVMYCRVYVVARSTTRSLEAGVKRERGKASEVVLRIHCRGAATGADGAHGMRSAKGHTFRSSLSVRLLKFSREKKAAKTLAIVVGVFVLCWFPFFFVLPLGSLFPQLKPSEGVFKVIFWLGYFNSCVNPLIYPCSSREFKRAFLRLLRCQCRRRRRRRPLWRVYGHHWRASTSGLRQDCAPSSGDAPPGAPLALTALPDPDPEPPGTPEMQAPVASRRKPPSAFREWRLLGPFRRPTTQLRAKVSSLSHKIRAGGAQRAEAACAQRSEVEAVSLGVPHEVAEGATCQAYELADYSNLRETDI

Androgen receptor = molecular target: T4, Androgen receptor (Rattus norvegicus, UniProt P15207)
T4 sequence (P15207 whole entry): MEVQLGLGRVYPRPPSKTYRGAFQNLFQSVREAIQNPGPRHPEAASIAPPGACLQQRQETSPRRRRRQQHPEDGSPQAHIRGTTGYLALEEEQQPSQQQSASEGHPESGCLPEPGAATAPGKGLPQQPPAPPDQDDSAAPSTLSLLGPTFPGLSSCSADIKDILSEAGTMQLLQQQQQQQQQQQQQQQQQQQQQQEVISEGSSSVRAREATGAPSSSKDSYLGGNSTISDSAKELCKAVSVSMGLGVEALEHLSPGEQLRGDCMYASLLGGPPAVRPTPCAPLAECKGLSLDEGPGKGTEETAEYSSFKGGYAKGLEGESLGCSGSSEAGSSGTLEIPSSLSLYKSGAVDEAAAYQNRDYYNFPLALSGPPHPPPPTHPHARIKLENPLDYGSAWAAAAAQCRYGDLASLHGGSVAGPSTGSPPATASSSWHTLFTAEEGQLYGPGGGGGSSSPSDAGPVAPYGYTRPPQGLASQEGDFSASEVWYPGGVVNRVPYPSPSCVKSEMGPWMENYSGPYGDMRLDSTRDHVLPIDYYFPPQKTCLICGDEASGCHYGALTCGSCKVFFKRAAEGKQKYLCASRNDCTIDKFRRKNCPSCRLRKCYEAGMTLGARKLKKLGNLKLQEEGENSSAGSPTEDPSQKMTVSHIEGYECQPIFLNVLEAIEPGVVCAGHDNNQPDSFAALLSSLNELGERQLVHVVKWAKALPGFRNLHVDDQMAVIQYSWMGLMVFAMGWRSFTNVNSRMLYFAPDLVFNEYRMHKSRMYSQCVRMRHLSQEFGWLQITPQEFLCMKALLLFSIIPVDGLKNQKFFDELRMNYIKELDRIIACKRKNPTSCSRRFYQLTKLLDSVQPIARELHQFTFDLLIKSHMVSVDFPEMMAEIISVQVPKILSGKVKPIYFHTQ
Further: in other assays of this panel Not Active means under 50% inhibition at 10 µM.

Row | Compound | IC50 ([1]; insect cells) | IC50 [2] | IC50 (Glucocorticoid receptor) [nM] | Ki (Glucocorticoid receptor) [nM] | IC50 (Cytochrome P450 2D6) | Ki (Cytochrome P450 2D6) | IC50 [3] | IC50 (Androgen receptor) | IC50 ([1]; read-out: IC50) [nM] | Ki ([1]; insect cells) | IC50 ([2]; read-out: IC50) [nM] | Ki ([2]; read-out: Ki) [nM] | Ki (Androgen receptor) | Ki [3] | Ki [2]
1 | CCC(=O)O[C@]1(C(=O)CCl)[C@@H](C)C[C@H]2[C@@H]3CCC4=CC(=O)C=C[C@]4(C)[C@@]3(F)[C@@H](O)C[C@@]21C [CLOBETASOL PROPIONATE] | Not Active | Not Active | 1.46 | 0.662 | Not Active | Not Active | Not Active |  |  |  |  |  |  |  | 
2 | C[C@@H]1C[C@H]2[C@@H]3CCC4=CC(=O)C=C[C@]4(C)[C@@]3(F)[C@@H](O)C[C@]2(C)[C@H]1C(=O)CO [DESOXIMETASONE] | Not Active | Not Active | 2.57 | 1.17 | Not Active | Not Active | Not Active |  |  |  |  |  |  |  | 
3 | CC(=O)[C@@]1(O)CC[C@H]2[C@@H]3CCC4=CC(=O)CC[C@]4(C)[C@H]3CC[C@@]21C [HYDROXYPROGESTERONE] | Not Active | Not Active | 51 | 23 |  |  | Not Active |  |  |  |  |  |  |  | 
4 | CCN(CC)CCOCCC1=CCC2CC1C2(C)C (stereo not drawn) [MYRTECAINE] | Not Active | Not Active |  |  | Not Active | Not Active | Not Active | Not Active |  |  |  |  |  |  | 
5 | C#CC1(O)CC[C@H]2[C@@H]3CCC4=CC(=O)CC[C@@H]4[C@H]3CC[C@@]21CC (stereo partly drawn) [NORGESTREL] | Not Active | Not Active | 149 | 68 | Not Active | Not Active | Not Active |  |  |  |  |  |  |  | 
6 | CC(=O)O[C@H]1C(=O)[C@@]2(C)[C@H]([C@H](OC(=O)c3ccccc3)[C@]3(O)C[C@H](OC(=O)[C@H](O)[C@@H](NC(=O)c4ccccc4)c4ccccc4)C(C)=C1C3(C)C)[C@]1(OC(C)=O)CO[C@@H]1C[C@@H]2O [PACLITAXEL] |  | Not Active |  |  | Not Active | Not Active | Not Active | Not Active | 11100 |  |  |  |  |  | 
7 | C[n+]1ccc(-c2cc[n+](C)cc2)cc1.[Cl-].[Cl-] [PARAQUAT DICHLORIDE] | Not Active | Not Active |  |  | Not Active | Not Active | Not Active | Not Active |  |  |  |  |  |  | 
8 | CC(=O)[C@H]1[C@H](C#N)C[C@H]2[C@@H]3CC=C4C[C@@H](O)CC[C@]4(C)[C@H]3CC[C@@]21C [PREGNENOLONE CARBONITRILE] | Not Active | Not Active | 14000 | 6340 | Not Active | Not Active | Not Active |  |  |  |  |  |  |  | 
9 | CCCN(CCC)S(=O)(=O)c1ccc(C(=O)O)cc1 [PROBENECID] | Not Active | Not Active |  |  | Not Active | Not Active | Not Active | Not Active |  |  |  |  |  |  | 
10 | C[C@@H]1O[C@@H](O[C@@H]2C=C3CC[C@@H]4[C@H](CC[C@]5(C)[C@@H](c6ccc(=O)oc6)CC[C@]45O)[C@@]3(C)CC2)[C@H](O)[C@H](O)[C@H]1O [PROSCILLARIDIN] | Not Active | Not Active |  |  | Not Active | Not Active | Not Active | Not Active |  |  |  |  |  |  | 
11 | AURANOFIN | Not Active |  |  |  | Not Active | Not Active | Not Active | Not Active |  | Not Active | 884 | 331 | Not Active | Not Active | 
12 | GADOPENTETATE DIMEGLUMINE | Not Active | Not Active |  |  | Not Active | Not Active | Not Active | Not Active |  | Not Active |  |  | Not Active | Not Active | Not Active
13 | GENTAMICIN | Not Active | Not Active |  |  | Not Active | Not Active | Not Active | Not Active |  | Not Active |  |  | Not Active | Not Active | Not Active
14 | GRAMICIDIN | Not Active | Not Active |  |  | Not Active | Not Active | Not Active | Not Active |  | Not Active |  |  | Not Active | Not Active | Not Active
15 | NYSTATIN | Not Active | Not Active |  |  | Not Active | Not Active | Not Active | Not Active |  | Not Active |  |  | Not Active | Not Active | Not Active
